# From patent US5510355A, “Depolarizing skeletal muscle relaxants” (priority 1994, dated 1996)
# Counter-ions that a name gives are not always drawn. Like-named read-outs stand apart in the source and are kept apart here.
# Assays:
# [1] = biological target: T1, muscle-like nicotinic receptors (human clonal line TE671/RD) (Homo sapiens, UniProt P02708+P07510+Q07001); test: cell-based; conditions: for Emax: read-out: HUMAN MUSCLE Emax (maximal activation as percentage of that induced by acetylcholine); for potency relative to succinylcholine, in words: comparison of EC50 values with Sample No. C-2; for efficacy relative to succinylcholine, in words: comparison of Emax values with Sample No. C-2
# T1 construct: these cells express muscle-like nicotinic receptors; endogenous in cells; host or cells: TE671/RD (human embryonal rhabdomyosarcoma line)
# Protocol: (§1) The selectivity at muscle nicotinic receptors of the various analogs described in this invention was determined by their functional efficacies and potencies at muscle and ganglionic sites.
# (§2) Intact cells on dishes were used for functional studies.
# (§3) The medium was removed and ^86 Rb^+ was quantitated using Cerenkov detection. […] Specific ion efflux was determined as the difference in isotope efflux between total and non-specific efflux samples. Dose-response curves were plotted and the concentration resulting in half maximal activation of specific ion flux through nicotinic receptors determined for human muscle and rat ganglionic preparations (EC50).
# [2] = test system: ganglionic-type neuronal nicotinic receptors (rat pheochromocytoma clonal line PC12); type: cell-based
# Protocol: as §1
# Ganglionic effects were established on the rat pheochromocytoma clonal line PC12 which is a continuous clonal cell line of neural crest origin derived from a tumor of the rat adrenal medulla expressing ganglionic-type neuronal nicotinic receptors. […] Discussion concerning the heterogeneity of nicotinic receptors subtypes is set forth in Lukas et al., Internatl. […] See, Fornasari et al., Neurosci.
# as §2, §3
# [3] = human muscle, TE671/RD, 86Rb+ efflux, 4 minutes at 20° C., read-out: HUMAN MUSCLE EC50 (concentration resulting in half maximal activation of specific ion flux)
# [4] = rat ganglia, PC12, 86Rb+ efflux, 4 minutes at 20° C.; read-out: RAT GANGLIA EC50 (concentration resulting in half maximal activation of specific ion flux)
# T1 sequence (P07510 23-517): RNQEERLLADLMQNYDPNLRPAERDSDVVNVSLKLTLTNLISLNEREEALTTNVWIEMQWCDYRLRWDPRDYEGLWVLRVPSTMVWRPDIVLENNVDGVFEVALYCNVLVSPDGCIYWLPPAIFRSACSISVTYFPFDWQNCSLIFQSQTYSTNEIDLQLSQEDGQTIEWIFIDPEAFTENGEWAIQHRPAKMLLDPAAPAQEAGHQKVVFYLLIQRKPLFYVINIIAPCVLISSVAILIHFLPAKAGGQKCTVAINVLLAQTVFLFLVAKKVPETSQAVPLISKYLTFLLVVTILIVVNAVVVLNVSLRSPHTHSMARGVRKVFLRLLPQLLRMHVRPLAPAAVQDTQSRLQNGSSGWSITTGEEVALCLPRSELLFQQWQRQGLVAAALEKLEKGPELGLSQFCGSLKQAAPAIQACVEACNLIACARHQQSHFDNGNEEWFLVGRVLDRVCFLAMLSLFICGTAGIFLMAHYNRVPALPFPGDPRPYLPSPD
# T1 sequence (P02708 21-457): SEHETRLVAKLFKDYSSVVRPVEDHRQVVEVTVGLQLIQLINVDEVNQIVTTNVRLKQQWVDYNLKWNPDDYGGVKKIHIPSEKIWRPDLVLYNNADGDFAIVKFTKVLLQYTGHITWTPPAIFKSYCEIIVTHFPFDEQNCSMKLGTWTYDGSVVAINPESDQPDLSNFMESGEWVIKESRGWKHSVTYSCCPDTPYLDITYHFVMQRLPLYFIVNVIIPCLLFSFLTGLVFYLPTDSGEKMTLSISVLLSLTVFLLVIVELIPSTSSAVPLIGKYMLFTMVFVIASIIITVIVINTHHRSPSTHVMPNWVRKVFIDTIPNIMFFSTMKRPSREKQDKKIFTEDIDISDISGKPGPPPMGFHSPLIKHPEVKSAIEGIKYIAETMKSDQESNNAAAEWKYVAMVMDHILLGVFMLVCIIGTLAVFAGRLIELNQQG
# T1 sequence (Q07001 22-517): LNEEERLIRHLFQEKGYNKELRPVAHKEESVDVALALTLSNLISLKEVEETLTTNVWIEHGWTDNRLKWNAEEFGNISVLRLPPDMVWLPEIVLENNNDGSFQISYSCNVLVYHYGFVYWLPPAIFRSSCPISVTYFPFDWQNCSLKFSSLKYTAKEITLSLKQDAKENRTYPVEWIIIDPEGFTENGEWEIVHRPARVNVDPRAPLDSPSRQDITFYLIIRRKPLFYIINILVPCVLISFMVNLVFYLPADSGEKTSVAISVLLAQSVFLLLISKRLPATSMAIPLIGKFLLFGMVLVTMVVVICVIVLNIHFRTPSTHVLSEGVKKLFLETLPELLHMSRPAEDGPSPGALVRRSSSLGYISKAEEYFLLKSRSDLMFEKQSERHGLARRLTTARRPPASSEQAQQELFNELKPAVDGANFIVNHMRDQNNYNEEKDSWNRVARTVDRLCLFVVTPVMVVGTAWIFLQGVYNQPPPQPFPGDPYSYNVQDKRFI
Structure (SMILES),Emax ([1]; TE671/RD) [%],"EC50 [1, 3] [µM]","potency relative to succinylcholine, in words ([1]; human muscle)","efficacy relative to succinylcholine, in words ([1]; human muscle)",RAT GANGLIA Emax (maximal activation as percentage of that induced by acetylcholine) [2] [%],"ganglionic effects, in words ([2]; ganglionic-type receptors)","EC50 [2, 4] [µM]",EC50 [1] [µM],"RAT GANGLIA Emax (maximal activation as percentage of that induced by acetylcholine) ([2]; rat ganglia, PC12, % of acetylcholine maximum) [%]","EC50 ([2]; read-out: RAT GANGLIA EC50 (concentration resulting in half maximal activation of specific ion flux); rat ganglia, PC12, 86Rb+ efflux, 4 minutes at 20° C.) [µM]"
"Fc1cncc(C2=NCCCC2)c1 [Sample No. 2, 5-fluoroanabaseine dipicrate]",220,1,very potent relative to succinylcholine,very efficacious relative to succinylcholine,0,no observed ganglionic effects,–,–,–,–
"O=C(O)/C=C/C(=O)O.O=C(O)/C=C/C(=O)O.c1cncc(C2CC3CCN2CC3)c1 (racemic) [Sample No. 1, (+/-)-2-(3-pyridyl)-quinuclidine difumarate]",130,0.055,more potent,more efficacious than succinylcholine,100,only at relatively high concentrations,2,–,–,–
"CC(=O)OCC1CC2CCN1CC2.[O-][Cl+3]([O-])([O-])O (racemic) [Sample No. 4, (+/-)-2-acetoxymethylquinuclidine perchlorate]",200,3,more potent,more efficacious than succinylcholine,60,only at relatively high concentrations,50,–,–,–
"c1cncc(C2=NCCCC2)c1 [Sample No. 3, anabaseine dihydrochloride]",200,–,more potent,more efficacious than succinylcholine,–,only at relatively high concentrations,–,2,80,50
"CN1CCCC1c1cncc(Cl)c1.[O-][Cl+3]([O-])([O-])O (racemic) [Sample No. 6, (+/-)-5-chloronicotine perchlorate]",110,30,at least as potent as succinylcholine,more efficacious than succinylcholine,0,–,–,–,–,–
"Fc1cncc(C2CCCN2)c1 (racemic) [Sample No. 5, (+/-)-5-fluoronornicotine]",160,30,at least as potent as succinylcholine,more efficacious than succinylcholine,< 10,–,–,–,–,–
"CC(=O)OCC[N+](C)(C)C [C-1, acetylcholine, reference compound]",–,–,–,–,100,–,–,–,–,–
"C[N+](C)(C)CCOC(=O)CCC(=O)OCC[N+](C)(C)C [Sample No. C-2, succinylcholine chloride, reference compound]",95,30,–,–,0,–,–,–,–,–
